Tests used:
[1] = Increase in serum triglycerides level following reference intravenous doxorubicin at 1 mg.Kg-1 per week in rat; type: toxicity, organism-based, SD; design: dose 1 mg.Kg-1, dosed compound id 2.46809e+06, dosed compound name Doxorubicin, dose level High, gender Mixed, regimen Once per week, route intravenous, sampling time 8-22 Week, study doses 0/0.3/0.6/1 mg.Kg-1; conditions: in vivo
[2] = Elimination of doxorubicin following doxorubicin at 60 mg.m-2 dose in cancer patients; type: ADME, organism-based, Plasma; conditions: human, in vivo, iv
[3] = Volume of distribution at steady state following doxorubicin at 60 mg.m-2 dose in patients with cancer; type: ADME, organism-based; design: dose 60 mg.m-2, dosed compound id 2.46809e+06, dosed compound name Doxorubicin; conditions: human, plasma, read-out: Vss
[4] = Increase in serum phospholipid level following reference intravenous doxorubicin at 1 mg.Kg-1 per week in rat; type: toxicity, organism-based, SD; design: dose 1 mg.Kg-1, dosed compound id 2.46809e+06, dosed compound name Doxorubicin, dose level High, gender Mixed, regimen Once per week, route intravenous, sampling time 8-22 Week, study doses 0/0.3/0.6/1 mg.Kg-1; conditions: in vivo
in vivo [5] = conditions: female, BALB/c, mouse, plasma, iv, 10 mg/kg
[6] = Renal clearance of doxorubicin following doxorubicin at 60 mg.m-2 dose in cancer patients; type: ADME, organism-based, Kidney; conditions: human, in vivo, iv, read-out: Renal clearance (converted)
[7] = Detection of doxorubicin in heart following single intravenous doxorubicin at 10 mg.Kg-1 dose in female mouse bearing colon tumor; type: ADME, organism-based, BALB/c; design: dose 10 mg.Kg-1, dosed compound id 2.46809e+06, dosed compound name Doxorubicin, gender F, regimen Single, route intravenous, sampling time 48 h; conditions: in vivo
[8] = Incidence of persistent proteinuria following reference intravenous doxorubicin at 1 mg.Kg-1 per week in rat; type: toxicity, organism-based, SD; design: dose 1 mg.Kg-1, dosed compound id 2.46809e+06, dosed compound name Doxorubicin, dose level High, gender Mixed, regimen Once per week, route intravenous, sampling time 36 Week, study doses 0/0.3/0.6/1 mg.Kg-1; conditions: in vivo
[9] = Incidence of leukocyturia following reference intravenous doxorubicin at 1 mg.Kg-1 per week in rat; type: toxicity, organism-based, SD; design: dose 1 mg.Kg-1, dosed compound id 2.46809e+06, dosed compound name Doxorubicin, dose level High, gender Mixed, regimen Once per week, route intravenous, sampling time 36 Week, study doses 0/0.3/0.6/1 mg.Kg-1; conditions: in vivo
[10] = AUC values (0-48 h) of doxorubicin in heart following single intravenous doxorubicin at 10 mg.Kg-1 dose in female mouse bearing colon tumor; type: ADME, organism-based, BALB/c; design: time < 48 hr, dose 10 mg.Kg-1, dosed compound id 2.46809e+06, dosed compound name Doxorubicin, gender F, regimen Single, route intravenous, sampling time 48 h; conditions: in vivo
[11] = Volume of distribution of adriamycin following intravenous adriamycin at 1.27 mg.Kg-1 dose in dog; type: ADME, organism-based, Canis lupus familiaris; design: dose 1.27 mg.Kg-1, dosed compound id 2.46809e+06, dosed compound name Doxorubicin, route intravenous; conditions: Beagle, plasma
in vivo [12] = conditions: female, BALB/c, mouse, tumor, iv, 10 mg/kg
[13] = Percentage of doxorubicin excreted unchanged in urine following doxorubicin at 60 mg.m-2 dose in cancer patients; type: ADME, organism-based; design: dose 60 mg.m-2, dosed compound id 2.46809e+06, dosed compound name Doxorubicin; conditions: human, at 60 mg/m2, read-out: Compound recovery
[14] = Mean plasma clearance of doxorubicin following intravenous doxorubicin at 60 mg.m-2 dose in cancer patients; type: ADME, organism-based; conditions: human, read-out: CLp (converted)
[15] = Detection of doxorubicin in tumor following single intravenous doxorubicin at 10 mg.Kg-1 dose in female mouse bearing colon tumor; type: ADME, organism-based, BALB/c, Neoplasm; design: dose 10 mg.Kg-1, dosed compound id 2.46809e+06, dosed compound name Doxorubicin, gender F, regimen Single, route intravenous, sampling time 48 h; conditions: in vivo
Albumin = Albumin (Homo sapiens, UniProt P02768); experiment: Binding of doxorubicin to albumin; type: cell-free; conditions: read-out: Plasma protein binding (converted)
Sequence of Albumin (P02768 whole entry): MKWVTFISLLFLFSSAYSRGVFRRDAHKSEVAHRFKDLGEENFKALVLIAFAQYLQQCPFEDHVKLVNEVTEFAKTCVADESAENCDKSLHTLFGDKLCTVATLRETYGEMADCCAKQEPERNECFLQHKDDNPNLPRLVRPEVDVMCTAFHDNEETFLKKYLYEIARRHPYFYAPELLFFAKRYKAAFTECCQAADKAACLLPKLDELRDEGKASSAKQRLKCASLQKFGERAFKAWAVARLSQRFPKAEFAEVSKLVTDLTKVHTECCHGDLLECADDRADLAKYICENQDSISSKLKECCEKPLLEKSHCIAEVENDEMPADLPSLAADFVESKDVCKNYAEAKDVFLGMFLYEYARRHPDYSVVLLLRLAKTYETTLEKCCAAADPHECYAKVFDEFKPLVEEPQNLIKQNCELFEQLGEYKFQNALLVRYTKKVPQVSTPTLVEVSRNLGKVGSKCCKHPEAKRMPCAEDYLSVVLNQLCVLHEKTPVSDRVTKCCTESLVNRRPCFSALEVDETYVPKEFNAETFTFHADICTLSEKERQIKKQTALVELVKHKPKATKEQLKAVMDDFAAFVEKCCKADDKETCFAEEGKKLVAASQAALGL

[16] = Detection of doxorubicin in plasma following single intravenous doxorubicin at 10 mg.Kg-1 dose in female mouse bearing colon tumor; type: ADME, organism-based, BALB/c; design: dose 10 mg.Kg-1, dosed compound id 2.46809e+06, dosed compound name Doxorubicin, gender F, regimen Single, route intravenous, sampling time 48 h; conditions: in vivo
[17] = Increase in serum total cholesterol level following reference intravenous doxorubicin at 1 mg.Kg-1 per week in rat; type: toxicity, organism-based, SD; design: dose 1 mg.Kg-1, dosed compound id 2.46809e+06, dosed compound name Doxorubicin, dose level High, gender Mixed, regimen Once per week, route intravenous, sampling time 8-22 Week, study doses 0/0.3/0.6/1 mg.Kg-1; conditions: in vivo
[18] = AUC values (0-48 h) of doxorubicin in plasma following single intravenous doxorubicin at 10 mg.Kg-1 dose in female mouse bearing colon tumor; type: ADME, organism-based, BALB/c; design: time < 48 hr, dose 10 mg.Kg-1, dosed compound id 2.46809e+06, dosed compound name Doxorubicin, gender F, regimen Single, route intravenous, sampling time 48 h; conditions: in vivo
[19] = (§1) Urinary elimination of adriamycin following intravenous bolus adriamycin at 10 mg.Kg-1 dose in rat; type: ADME, organism-based; design: dose 10 mg.Kg-1, dosed compound id 2.46809e+06, dosed compound name Doxorubicin, route intravenous, sampling time 0-6 h; conditions: SD, urine, read-out: Compound recovery
in vivo [20] = conditions: female, BALB/c, mouse, heart, iv, 10 mg/kg
[21] = as §1; type: ADME, organism-based; design: dose 10 mg.Kg-1, dosed compound id 2.46809e+06, dosed compound name Doxorubicin, route intravenous, sampling time 0-24 h; conditions: SD, urine, read-out: Compound recovery
[22] = Mean terminal half-life of doxorubicin following intravenous doxorubicin at 60 mg.m-2 dose in cancer patients; conditions: human, plasma
[23] = AUC values (0-48 h) of doxorubicin in tumor following single intravenous doxorubicin at 10 mg.Kg-1 dose in female mouse bearing colon tumor; type: ADME, organism-based, BALB/c, Neoplasm; design: time < 48 hr, dose 10 mg.Kg-1, dosed compound id 2.46809e+06, dosed compound name Doxorubicin, gender F, regimen Single, route intravenous, sampling time 48 h; conditions: in vivo
[24] = Decrease in leukocytes observed following reference intravenous doxorubicin at 1 mg.Kg-1 per week in rat; type: toxicity, organism-based, SD, Blood; design: dose 1 mg.Kg-1, dosed compound id 2.46809e+06, dosed compound name Doxorubicin, dose level High, gender Mixed, regimen Once per week, route intravenous, sampling time 36 Week, study doses 0/0.3/0.6/1 mg.Kg-1; conditions: in vivo
[25] = Decrease in albumin due to persistent proteinuria following reference intravenous doxorubicin at 1 mg.Kg-1 per week in rat; type: toxicity, organism-based, SD, Serum; design: dose 1 mg.Kg-1, dosed compound id 2.46809e+06, dosed compound name Doxorubicin, dose level High, gender Mixed, regimen Once per week, route intravenous, sampling time 36 Week, study doses 0/0.3/0.6/1 mg.Kg-1; conditions: in vivo
[26] = Mortality occurred following reference intravenous doxorubicin at 1 mg.Kg-1 per week in rat; type: toxicity, organism-based, SD; design: dose 1 mg.Kg-1, dosed compound id 2.46809e+06, dosed compound name Doxorubicin, dose level High, gender Mixed, regimen Once per week, route intravenous, sampling time 17 Week, study doses 0/0.3/0.6/1 mg.Kg-1; conditions: in vivo
[27] = Mean AUC of doxorubicin following intravenous doxorubicin at 60 mg.m-2 dose in cancer patients; type: ADME, organism-based; conditions: human, plasma
Homo sapiens = organism: Homo sapiens; experiment: Binding of doxorubicin to plasma protein of human; type: cell-free
[28] = Terminal half-life of doxorubicin following intravenous doxorubicin at 1.27 mg.Kg-1 dose in dog; type: ADME, organism-based, Canis lupus familiaris, Beagle, Plasma; design: dose 1.27 mg.Kg-1, dosed compound id 2.46809e+06, dosed compound name Doxorubicin, route intravenous; conditions: in vivo
[29] = as §1; type: ADME, organism-based; design: dose 10 mg.Kg-1, dosed compound id 2.46809e+06, dosed compound name Doxorubicin, route intravenous, sampling time 0-60 h; conditions: SD, urine, read-out: Compound recovery
[30] = Plasma clearance of adriamycin following intravenous adriamycin at 1.27 mg.Kg-1 dose in dog; type: ADME, organism-based, Canis lupus familiaris; design: dose 1.27 mg.Kg-1, dosed compound id 2.46809e+06, dosed compound name Doxorubicin, route intravenous; conditions: Beagle, read-out: Clp
in vivo [31] = conditions: Beagle, dog, plasma, iv, 1.27 mg/kg

Question: With COc1cccc2c1C(=O)c1c(O)c3c(c(O)c1C2=O)C[C@@](O)(C(=O)CO)C[C@@H]3O[C@H]1C[C@H](N)[C@H](O)[C@H](C)O1 [DOXORUBICIN] as the molecule, how does the TRIG_CHANGE [1] read?
Answer: The TRIG_CHANGE was “OUTCOME = Increased”.

Question: And the Elimination [2]?
Answer: The Elimination was “OUTCOME = Observed”.

Question: What about the Vd [3] of the same molecule?
Answer: Its Vd is 33 L/kg.

Question: And the PHOSLPD_CHANGE [4]?
Answer: Its PHOSLPD_CHANGE is “OUTCOME = Increased”.

Question: And the half-life (in vivo [5])?
Answer: The half-life was 49.5 h.

Question: And the CL renal [6]?
Answer: Its CL renal is 76.7 mL/min.

Question: What about the Compound recovery [7] of the same molecule?
Answer: The Compound recovery was “OUTCOME = Observed”.

Question: And the Incidence [8]?
Answer: Its Incidence is “OUTCOME = Observed”.

Question: And the Incidence [9]?
Answer: Its Incidence is “OUTCOME = Observed”.

Question: And the AUC [10]?
Answer: The AUC was 14100 nmol·min/g.

Question: What about the Vd [11] of the same molecule?
Answer: The Vd was 19.1 L/kg.

Question: What about the half-life (in vivo [12]) of the same molecule?
Answer: The half-life was 32.1 h.

Question: What about the dose excreted at 7 Day [13] of the same molecule?
Answer: Its dose excreted at 7 Day is 9%.

Question: What about the clearance [14] of the same molecule?
Answer: Its clearance is 950 mL/min.

Question: And the Compound recovery [15]?
Answer: Its Compound recovery is “OUTCOME = Observed”.

Question: And the fraction unbound (Albumin)?
Answer: The fraction unbound was 0.38.

Question: What about the Compound recovery [16] of the same molecule?
Answer: The Compound recovery was “OUTCOME = Observed”.

Question: What about the CHOL_CHANGE [17] of the same molecule?
Answer: Its CHOL_CHANGE is “OUTCOME = Increased”.

Question: What about the AUC [18] of the same molecule?
Answer: The AUC was 204.9 nmol·min/mL.

Question: What about the dose excreted [19] of the same molecule?
Answer: Its dose excreted is 2.08%.

Question: And the half-life (in vivo [20])?
Answer: Its half-life is 13.2 h.

Question: What about the dose excreted [21] of the same molecule?
Answer: The dose excreted was 2.77%.

Question: And the half-life [22]?
Answer: The half-life was 48 h.

Question: And the AUC [23]?
Answer: The AUC was 8700 nmol·min/g.

Question: And the WBC_CHANGE [24]?
Answer: The WBC_CHANGE was 45%.

Question: What about the ALB_CHANGE [25] of the same molecule?
Answer: The ALB_CHANGE was “OUTCOME = Decreased”.

Question: What about the Mortality [26] of the same molecule?
Answer: The Mortality was “OUTCOME = Observed, N_AFFECTED = 9”.

Question: And the AUC [27]?
Answer: Its AUC is 1970 ng·h/mL.

Question: What about the PPB (Homo sapiens) of the same molecule?
Answer: The PPB was 71%.

Question: And the t1/2 [28]?
Answer: The t1/2 was “VALUE = Shorter than doxorubicin”.

Question: And the dose excreted [29]?
Answer: The dose excreted was 3.33%.

Question: What about the clearance [30] of the same molecule?
Answer: Its clearance is 607 mL/min.

Question: And the half-life (in vivo [31])?
Answer: The half-life was 5.4 min.

From ChEMBL document CHEMBL3508140 (2016)
